Our source for the flash point values is a flash point compilation (Sun et al. 2020).

The structures appear in SMILES notation.

Compound `Cc1ccc(C)cc1` [1,4-xylene] yielded a flash point of 27.00 °C. In the case of `O=C=NCCCCCCN=C=O` [1,6-diisocyanatohexane] it was 140.00 °C; in that of `CC12CCC(CC1=O)C2(C)C` (centres undefined) [1,7,7-trimethylbicyclo[2.2.1]heptan-2-one], 66.00 °C. In the case of `CCCCOCCOCC(C)O` (centres undefined) [1-(2-butoxyethoxy)propan-2-ol] it was 121.00 °C. In the case of `CC(O)CNCC(C)O` (centres undefined) [1-(2-hydroxypropylamino)propan-2-ol] it was 126.00 °C; in that of `CCC(OCCCOC)OC(C)=O` (centres undefined) [1-(3-methoxypropoxy)propyl acetate], 86.00 °C. `COc1ccc(C(C)=O)cc1` [1-(4-methoxyphenyl)ethanone] yielded a flash point of 138.00 °C.

`Cc1ccc(CBr)cc1` [1-(bromomethyl)-4-methylbenzene] showed a flash point of 98.00 °C. As to `C=CCOC(Cn1ccnc1)c1ccc(Cl)cc1Cl` (centres undefined) [1-[2-(2,4-dichlorophenyl)-2-prop-2-enoxyethyl]imidazole], the flash point stood at 192.00 °C. In the case of `CC(O)COC(C)(C)C` (centres undefined) [1-[(2-methylpropan-2-yl)oxy]propan-2-ol] it was 44.00 °C; in that of `CC(O)CN(CC(C)O)CC(C)O` (centres undefined) [1-[bis(2-hydroxypropyl)amino]propan-2-ol], 160.00 °C.

The compound `O=P(N1CC1)(N1CC1)N1CC1` [1-[bis(aziridin-1-yl)phosphoryl]aziridine] displayed a flash point of 163.00 °C.

For `CCCCOP(=O)(CCCC)OCCCC` [1-[butoxy(butyl)phosphoryl]oxybutane], the flash point was 154.00 °C. In the case of `CC(O)CN` (centres undefined) [1-aminopropan-2-ol] it was 77.00 °C; in that of `Cc1ccccc1Br` [1-bromo-2-methylbenzene], 79.00 °C. In the case of `Cc1ccc(Br)cc1` [1-bromo-4-methylbenzene] it was 85.00 °C; in that of `Brc1ccc(-c2ccccc2)cc1` [1-bromo-4-phenylbenzene], 143.00 °C; in that of `CC(O)CBr` (centres undefined) [1-bromopropan-2-ol], 54.00 °C. In the case of `CC(CCl)OC(C)CCl` (centres undefined) [1-chloro-2-(1-chloropropan-2-yloxy)propane], the flash point is 85.00 °C.

As to `ClCCOCCCl` [1-chloro-2-(2-chloroethoxy)ethane], the flash point was determined as 55.00 °C.

Turning to `ClCCOCOCCCl` [1-chloro-2-(2-chloroethoxymethoxy)ethane], the flash point turned out to be 110.00 °C.

`C=COCCCl` [1-chloro-2-ethenoxyethane]: the flash point came out at 16.00 °C. Compound `Cc1ccccc1Cl` [1-chloro-2-methylbenzene] yielded a flash point of 52.00 °C. `CC(C)=CCl` [1-chloro-2-methylprop-1-ene] returned a flash point of -1.00 °C.

In the case of `O=[N+]([O-])c1ccccc1Cl` [1-chloro-2-nitrobenzene], the flash point was 127.00 °C. In the case of `FC(F)(F)c1cccc(Cl)c1` [1-chloro-3-(trifluoromethyl)benzene] it was 47.00 °C. Compound `Cc1cccc(Cl)c1` [1-chloro-3-methylbenzene] came in with a flash point of 52.00 °C.

As to `O=[N+]([O-])c1cccc(Cl)c1` [1-chloro-3-nitrobenzene], the flash point came to 127.00 °C. In the case of `FC(F)(F)c1ccc(Cl)cc1` [1-chloro-4-(trifluoromethyl)benzene] it was 47.00 °C; in that of `CCC(C(c1ccc(Cl)cc1)c1ccc(Cl)cc1)[N+](=O)[O-]` (centres undefined) [1-chloro-4-[1-(4-chlorophenyl)-2-nitrobutyl]benzene], 150.00 °C; in that of `O=C=Nc1ccc(Cl)cc1` [1-chloro-4-isocyanatobenzene], 110.00 °C. In the case of `O=[N+]([O-])c1ccc(Cl)cc1` [1-chloro-4-nitrobenzene] it was 110.00 °C. In the case of `CCCCCCCCCCCCCl` [1-chlorododecane] it was 113.00 °C; in that of `Clc1cccc2ccccc12` [1-chloronaphthalene], 121.00 °C. With `C1=CC(c2ccc(C3CC=CCC3)cc2)CCC1` (centres undefined) [1-cyclohex-2-en-1-yl-4-cyclohex-3-en-1-ylbenzene], the flash point was 157.00 °C.

Consider `C=COCC(C)C` [1-ethenoxy-2-methylpropane], for which the flash point was -9.00 °C.

Regarding `C=Cc1ccccc1C` [1-ethenyl-2-methylbenzene], the flash point turned out to be 60.00 °C. The compound `C=CN1CCCC1=O` [1-ethenylpyrrolidin-2-one] came in with a flash point of 93.00 °C. In the case of `Cc1cccc(F)c1` [1-fluoro-3-methylbenzene] it was 9.00 °C. In the case of `Cc1ccc(F)cc1` [1-fluoro-4-methylbenzene] it was 41.00 °C; in that of `CC(C)c1cc(OO)cc(C(C)C)c1` [1-hydroperoxy-3,5-di(propan-2-yl)benzene], 79.00 °C; in that of `COCCOCCOC` [1-methoxy-2-(2-methoxyethoxy)ethane], 67.00 °C. `COc1ccccc1[N+](=O)[O-]` [1-methoxy-2-nitrobenzene] had a flash point of 142.00 °C.

`C/C=C/c1ccc(OC)cc1` [1-methoxy-4-[(E)-prop-1-enyl]benzene] came in with a flash point of 91.00 °C. In the case of `C=CCc1ccc(OC)cc1` [1-methoxy-4-prop-2-enylbenzene] it was 81.00 °C; in that of `COCC(C)OC(C)=O` (centres undefined) [1-methoxypropan-2-yl acetate], 46.00 °C; in that of `Cc1ccccc1[N+](=O)[O-]` [1-methyl-2-nitrobenzene], 106.00 °C. In the case of `Cc1cccc([N+](=O)[O-])c1` [1-methyl-3-nitrobenzene] it was 106.00 °C; in that of `O=[N+]([O-])c1ccccc1C(F)(F)F` [1-nitro-2-(trifluoromethyl)benzene], 96.00 °C; in that of `O=[N+]([O-])c1ccc(-c2ccccc2)cc1` [1-nitro-4-phenylbenzene], 143.00 °C.

`O=[N+]([O-])c1cccc2ccccc12` [1-nitronaphthalene]: the flash point turned out to be 164.00 °C. In the case of `CCC[N+](=O)[O-]` [1-nitropropane] it was 34.00 °C; in that of `O=NN1CCCC1` [1-nitrosopyrrolidine], 83.00 °C; in that of `CCCCCSCCCCC` [1-pentylsulfanylpentane], 85.00 °C.

In turn, `CC(=O)c1ccccc1` [1-phenylethanone] displayed a flash point of 82.00 °C.

`CCCOCC(C)O` (centres undefined) [1-propoxypropan-2-ol] gave a flash point of 48.00 °C.

`c1nc[nH]n1` [1H-1,2,4-triazole] returned a flash point of 170.00 °C.

In turn, `C1=Cc2ccccc2C1` [1H-indene] yielded a flash point of 78.00 °C. In the case of `O=CC(Cl)(Cl)Cl` [2,2,2-trichloroacetaldehyde] it was 75.00 °C. `CC1=CC(C)(C)Nc2ccccc21` [2,2,4-trimethyl-1H-quinoline] came in with a flash point of 101.00 °C. On to `CC(C)CC(C)(C)C` [2,2,4-trimethylpentane], for which the flash point is -12.00 °C.

`CC(C)CCC(C)(C)C` [2,2,5-trimethylhexane] returned a flash point of 31.00 °C.

Compound `OCC(CO)(CO)CO` [2,2-bis(hydroxymethyl)propane-1,3-diol] yielded a flash point of 240.00 °C. In turn, `O=C(O)C(Br)Br` [2,2-dibromoacetic acid] registered a flash point of 113.00 °C. As for `COC(F)(F)C(Cl)Cl` [2,2-dichloro-1,1-difluoro-1-methoxyethane], the flash point worked out at 63.00 °C. `CC(C)(C)CO` [2,2-dimethylpropan-1-ol]: the flash point was determined as 37.00 °C.

With `CC(C)(C)C(=O)O` [2,2-dimethylpropanoic acid], the flash point stood at 64.00 °C. The compound `C=C(Cl)C(Cl)CCl` (centres undefined) [2,3,4-trichlorobut-1-ene] yielded a flash point of 63.00 °C.

`Oc1ccc(Cl)c(Cl)c1Cl` [2,3,4-trichlorophenol]: the flash point came to 62.00 °C. In the case of `Oc1c(Cl)ccc(Cl)c1Cl` [2,3,6-trichlorophenol] it was 79.00 °C; in that of `O=C(O)C(O)C(O)C(=O)O` (centres undefined) [2,3-dihydroxybutanedioic acid], 210.00 °C. `Cc1cccc(N)c1C` [2,3-dimethylaniline] had a flash point of 97.00 °C. In the case of `CC(C)=CC(C)(C)C` [2,4,4-trimethylpent-2-ene] it was 2.00 °C; in that of `CC(C)(C)CC(C)(C)S` [2,4,4-trimethylpentane-2-thiol], 46.00 °C. For `Oc1cc(Cl)c(Cl)cc1Cl` [2,4,5-trichlorophenol], the flash point was found to be 133.00 °C. In turn, `CC1OC(C)OC(C)OC(C)O1` (centres undefined) [2,4,6,8-tetramethyl-1,3,5,7-tetraoxocane] had a flash point of 36.00 °C.

`Oc1c(Cl)cc(Cl)cc1Cl` [2,4,6-trichlorophenol] yielded a flash point of 99.00 °C. In the case of `CC1OC(C)OC(C)O1` (centres undefined) [2,4,6-trimethyl-1,3,5-trioxane] it was 36.00 °C.

For `CC(C)(C)c1cc(C(C)(C)C)c(O)c(C(C)(C)C)c1` [2,4,6-tritert-butylphenol], the flash point worked out at 130.00 °C. In the case of `Nc1ccc(Cl)cc1Cl` [2,4-dichloroaniline] it was 115.00 °C. Turning to `Oc1ccc(Cl)cc1Cl` [2,4-dichlorophenol], the flash point came out at 114.00 °C. In the case of `Nc1ccc(F)cc1F` [2,4-difluoroaniline] it was 63.00 °C; in that of `Cc1ccc(N=C=O)cc1N=C=O` [2,4-diisocyanato-1-methylbenzene], 132.00 °C; in that of `Cc1ccc([N+](=O)[O-])c(C)c1` [2,4-dimethyl-1-nitrobenzene], 107.00 °C.
